Tests used:
[1] = system: zymostenol accumulation (EBP) in EpiSC-derived OPCs; experiment: GC/MS-based sterol profiling, zymostenol accumulation in EpiSC-derived OPCs; assay type: cell-based, mouse; conditions: Mus musculus, 24 h, EpiSC-derived OPCs, 24 hr, 8 doses from 0.15 nM to 333 nM; read-out: Mouse Zymostenol GCMS EC50
Protocol: To assess effects of treatments on OPCs, all treatments were assayed in two or more independent platings of epiblast stem cell-derived OPCs (EpiSC). EpiSC-derived OPCs were obtained using in vitro differentiation protocols and culture conditions described previously (Najm et al, 2011, Nature Methods). OPCs were expanded and frozen down in aliquots. OPCs were thawed into growth conditions for at least one passage before use in further assays.
Sterols were monitored using a modified Folch wash protocol (Hubler et al, 2018, Nature). EpiSC-derived OPCs were plated at 100,000 cells per well in PO- and laminin-coated 96-well plates in N2B27 media without growth factors. After 24 hours, cells were rinsed with saline and plates were frozen. Cholesterol-d7 standard was then added to each well before drying under nitrogen stream and derivatization with 55 μl of bis(trimethylsilyl) trifluoroacetamide. After derivatization, 2 μl were analyzed by gas chromatography/mass spectrometry using an Agilent 5973 Network Mass Selective Detector equipped with a 6890 gas chromatograph system and a HP-5MS capillary column (30 m×0.25 mm×[…]). Samples were analyzed in full scan mode using electron impact ionization; ion fragment peaks were integrated to calculate sterol abundance, and quantitation was relative to cholesterol-d7. The following ion fragments were used to quantitate each metabolite: cholesterol-d7 (465), FF-Mas (482), cholesterol (368), zymostenol (458), zymosterol (456), Desmosterol (456, 343), 7-dehydrocholesterol (456, 325), lanosterol (393), lathosterol (458), 14-dehydrozymostenol (456, 351). […] All standards were obtained from Avanti Polar Lipids unless otherwise indicated. Calibration curves were generated by injecting varying concentrations of sterol standards and maintaining a fixed amount of cholesterol-D7. For normalized zymostenol accumulation results, the total amount of zymostenol measured after drug treatment was divided by the total amount of zymostenol accumulated after 24 hr treatment with 100 nM positive control reference.

[2] = molecular target: human emopamil binding protein and human 7-dehydrocholesterol reductase (hEBP-DHCR7) (Homo sapiens (Human), UniProt Q15125); experiment: hEBP-DHCR7 radioligand binding assay (filter binding, membranes of co-expressing HEK293 cells); conditions: competition with [3H] radioligand, 8 doses 0.06 to 5000 nM, Ki calculated from IC50
Chain of human emopamil binding protein and human 7-dehydrocholesterol reductase (hEBP-DHCR7) (Q15125 whole entry): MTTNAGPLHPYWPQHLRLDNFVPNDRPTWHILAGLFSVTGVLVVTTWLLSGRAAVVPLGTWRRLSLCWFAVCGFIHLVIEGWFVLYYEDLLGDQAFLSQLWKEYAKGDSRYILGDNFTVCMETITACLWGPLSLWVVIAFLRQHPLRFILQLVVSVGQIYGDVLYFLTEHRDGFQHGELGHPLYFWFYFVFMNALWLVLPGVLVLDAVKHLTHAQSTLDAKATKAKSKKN
Protocol: Membrane Preparation: human emopamil binding protein and human 7-dehydrocholesterol reductase co-expressing cells were generated by transient transfecting host human embryonic kidney (HEK) 293 cells with 2 DNA constructs containing each protein's coding sequence. Cells were suspension cultured at 37° C. with 5% CO2 in […] 293 Expression Medium (Thermofisher). Whole cell membrane was prepared by harvesting the cell pellet, adding cold membrane buffer (50 mM Tris, pH7.5, 1× Roche COMPLETE EDTA-free protease inhibitor cocktail) 10 times volume of the cell pellets weight, lysing cell pellet on ice by using Dounce homogenizer, spinning at 200 g 4° C. for 15 min, collecting supernatant and spinning again at 25000 g 4° C. for 50 min, transferring pellet to Dounce homogenizer, re-suspending pellet by homogenizing in membrane buffer on ice to reach ˜25 mg/mL, then keeping whole cell membrane aliquots at −80° C.
Compounds were prepared in a 96-well U bottom plate (Corning Cat #7007) using an Echo550 machine and 10 mM compound DMSO stock solution, followed by an 8-dose 5-fold serial dilutions protocol with final testing compound concentration ranging from 0.06 to 5000 nM, with DMSO back fill to 100 nL/well and n=2. […] The UniFilter-96 GF/B plates (PerkinElmer Cat #6005177) were pre-treated by adding 50 μl/well of 0.3% (v/v) Polyethylenimine (PEI) (branched, Sigma Cat #408727) to UniFilter-96 GF/B plates. The plates were sealed and incubated at 4° C. for 3 hrs. Then, the plates were washed with ice-cold assay buffer 3 times. The radioligand binding assay was prepared by adding assay buffer diluted hEBP-DHCR7 membrane at 66.7 µg/ml×150 μl/well into the 96-well compound plate to reach 10 μg membrane per well. Then, the assay buffer diluted [3H]—(S)-6-(2-Methyl-3-(6-(trifluoromethyl)pyridin-3-yl)propyl)-2-thia-6-azaspiro[3.4]octane 2,2-dioxide (Moravek, Cat #MT-1003106) was added at 25 nM×50 μl/well. Following this, the plate was centrifuged at 1000 rpm for 30 secs. The plate was then sealed and agitated at 600 rpm at 22° C. for 5 min, and then incubated at 22° C. for 3 hrs. The incubation was stopped by transferring the binding solution to the pre-treated UniFilter-96 GF/B plate, vacuum filtrated, and then washed four times with ice-cold assay buffer. Following this, the plates were dried at 37° C. for 45 min. The plates were then sealed at the bottom. 40 µl/well of scintillation cocktail was added to the plates. A MicroBeta2 microplate counter was then used to read the plate and analyze the data. For reference and test compounds, the results are expressed as % Inhibition, using the normalization equation: N=100−100×(U−C2)/(C1−C2), where U is the unknown value, C1 is the average of high controls, and C2 is the average value of low controls.

SMILES	EC50 [1]	Ki [2]
CC(C)n1nc(-c2ccc(C(F)(F)F)nc2)cc1[C@H]1CC[C@H](N2CCN(CCO)CC2)C1 (single isomer, unassigned) [88*]	627 nM	88.2 nM
CC(C)n1nc(-c2cnc(C(F)(F)F)nc2)cc1[C@H]1CC[C@@H](N2CCO[C@@H](CF)C2)C1 (single isomer, unassigned) [Compound 131*]	168 nM	106 nM
CC(C)n1nc([C@H]2CC[C@H](C(F)(F)F)CC2)nc1[C@H]1[C@@H]2C[C@H](N3CCOC[C@H]3C)C[C@@H]21 (single isomer, unassigned) [Compound 164*]	143 nM	1640 nM
CC(C)n1nc(-c2cccc(C(F)(F)F)n2)cc1[C@H]1[C@@H]2C[C@H](N3CCN(C4CCC4)CC3)C[C@@H]21 [Compound 85, 1-Cyclobutyl-4-((1R,3r,5S,6r)-6-(1-isopropyl-3-(6-(trifluoromethyl)pyridin-2-yl)-1H-pyrazol-5-yl)bicyclo[3.1.0]hexan-3-yl)piperazine]	279 nM	472 nM
CC(C)n1nc(-c2cnc(C(F)(F)F)nc2)nc1[C@@H]1CC[C@@H](N2CCO[C@H](C)C2)C1 [Compound 149, (R)-4-((1R,3R)-3-(1-Isopropyl-3-(2-(trifluoromethyl)pyrimidin-5-yl)-1H-1,2,4-triazol-5-yl)cyclopentyl)-2-methylmorpholine]	129 nM	68.3 nM
COCCN1CCN([C@@H]2CC[C@@H](c3cc(-c4ccc(C(F)(F)F)nc4)nn3C(C)C)C2)CC1 (single isomer, unassigned) [90*]	33.7 nM	11 nM
CC(C)n1nc(-c2cnc(C(F)(F)F)nc2)nc1[C@@H]1CC[C@H](N2CCO[C@H](C)C2)C1 [Compound 148, (R)-4-((1S,3R)-3-(1-Isopropyl-3-(2-(trifluoromethyl)pyrimidin-5-yl)-1H-1,2,4-triazol-5-yl)cyclopentyl)-2-methylmorpholine]	13.4 nM	22.2 nM
CC(C)n1nc(-c2cccc(C(F)(F)F)n2)cc1[C@H]1[C@@H]2C[C@@H](N3CCN(C4CCC4)CC3)C[C@@H]21 [Compound 84, 1-Cyclobutyl-4-((1R,3s,5S,6r)-6-(1-isopropyl-3-(6-(trifluoromethyl)pyridin-2-yl)-1H-pyrazol-5-yl)bicyclo[3.1.0]hexan-3-yl)piperazine]	3.49 nM	27.8 nM
CC(C)n1nc(-c2ccnc(C(F)(F)F)n2)cc1[C@H]1[C@@H]2C[C@H](N3CCOCC3)C[C@@H]21 [Compound 99, 4-((1R,3r,5S,6r)-6-(1-Isopropyl-3-(2-(trifluoromethyl)pyrimidin-4-yl)-1H-pyrazol-5-yl)bicyclo[3.1.0]hexan-3-yl)morpholine]	62 nM	87.8 nM

Continued, values first:

EC50 [1]	Ki [2]	SMILES
5.99 nM	11 nM	CC(C)n1nc(-c2ccnc(C(F)(F)F)n2)cc1[C@H]1[C@@H]2C[C@@H](N3CCOC[C@@H]3C)C[C@@H]21 [Compound 100, (S)-4-((1R,3s,5S,6S)-6-(1-Isopropyl-3-(2-(trifluoromethyl)pyrimidin-4-yl)-1H-pyrazol-5-yl)bicyclo[3.1.0]hexan-3-yl)-3-methylmorpholine]
619 nM	392 nM	CC(C)n1nc(-c2cnc(C(F)(F)F)nc2)cc1[C@H]1CC[C@H](N2CCO[C@@H](CF)C2)C1 (single isomer, unassigned) [Compound 130*]
83.5 nM	299 nM	CC(C)n1nc(-c2cnc(C(F)(F)F)nc2)nc1[C@H]1CC[C@H](N2CCO[C@H](C)C2)C1 [Compound 145, (R)-4-((1S,3S)-3-(1-isopropyl-3-(2-(trifluoromethyl)pyrimidin-5-yl)-1H-1,2,4-triazol-5-yl)cyclopentyl)-2-methylmorpholine]
97.2 nM	35 nM	CC(C)n1nc(-c2cncc(C(F)(F)F)c2)nc1[C@@H]1CC[C@@H](N2CCOCC2)C1 (single isomer, unassigned) [Compound 115*]
49 nM	169 nM	CC(C)n1nc(-c2cncc(C(F)(F)F)c2)nc1[C@H]1CC[C@H](N2CCOCC2)C1 (single isomer, unassigned) [Compound 116*]
305 nM	465 nM	CC[C@H]1CN([C@@H]2CC[C@@H](c3nc(-c4cnc(C(F)(F)F)nc4)nn3C(C)C)C2)CCO1 [Compound 155, (S)-2-Ethyl-4-((1R,3R)-3-(1-isopropyl-3-(2-(trifluoromethyl)pyrimidin-5-yl)-1H-1,2,4-triazol-5-yl)cyclopentyl) morpholine]
376 nM	2400 nM	CC[C@@H]1CN([C@@H]2CC[C@H](c3nc(-c4cncc(F)c4)nn3C(C)C)C2)CCO1 [Compound 124, (R)-2-Ethyl-4-((1R,3S)-3-(3-(5-fluoropyridin-3-yl)-1-isopropyl-1H-1,2,4-triazol-5-yl)cyclopentyl)morpholine]
19.2 nM	73.4 nM	CC(C)n1nc(-c2cncc(C(F)(F)F)c2)cc1[C@@H]1CC[C@@H](N2CCOCC2)C1 (single isomer, unassigned) [59*]
7.81 nM	26.6 nM	CC(C)n1nc(-c2cncc(C(F)(F)F)c2)nc1[C@H]1[C@@H]2C[C@H](N3CCOC[C@@H]3C)C[C@@H]21 [Compound 122, (S)-4-((1R,3r,5S,6R)-6-(1-Isopropyl-3-(5-(trifluoromethyl)pyridin-3-yl)-1H-1,2,4-triazol-5-yl)bicyclo[3.1.0]hexan-3-yl)-3-methylmorpholine]
10.6 nM	40.4 nM	CC[C@H]1CN([C@@H]2CC[C@H](c3nc(-c4cncc(F)c4)nn3C(C)C)C2)CCO1 [Compound 123, (S)-2-Ethyl-4-((1R,3S)-3-(3-(5-fluoropyridin-3-yl)-1-isopropyl-1H-1,2,4-triazol-5-yl)cyclopentyl)morpholine]
168 nM	37 nM	CC(C)n1nc(-c2cccc(OC(F)F)c2)nc1[C@H]1[C@@H]2C[C@@H](N3CCCOCC3)C[C@@H]21 [Compound 74, 4-((1R,3s,5S,6r)-6-(3-(3-(Difluoromethoxy)phenyl)-1-isopropyl-1H-1,2,4-triazol-5-yl)bicyclo[3.1.0]hexan-3-yl)-1,4-oxazepane]
946 nM	3540 nM	CC(C)n1nc(-c2cnc(C(F)(F)F)nc2)nc1[C@@H]1CC[C@H](N2CCO[C@@H](C)C2)C1 [Compound 150, (S)-4-((1S,3R)-3-(1-Isopropyl-3-(2-(trifluoromethyl)pyrimidin-5-yl)-1H-1,2,4-triazol-5-yl)cyclopentyl)-2-methylmorpholine]
39.5 nM	32.4 nM	CC(C)n1nc(-c2ccc(C(F)(F)F)nc2)nc1[C@@H]1CC[C@@H](N2CCCOCC2)C1 [Compound 3, 4-((1R,3R)-3-(1-isopropyl-3-(6-(trifluoromethyl)pyridin-3-yl)-1H-1,2,4-triazol-5-yl)cyclopentyl)-1,4-oxazepane]

Source: patent publication US20260008775A1, “AZOLE MODULATORS OF CHOLESTEROL BIOSYNTHESIS AND THEIR USE FOR PROMOTING REMYELINATION” (GENENTECH, INC., priority 2022, published 2026)
